The source made the active and inactive calls. No cut-off for these calls is given here.

The first experiment deals with Achaea janata. Briefly: Achaea janata L. fourth-instar larvae fed on 200 ppm compound pre-treated castor leaves for 24 hrs assessed total leaf disks consumed in 24 hrs by leaf disk bioassay. Format: functional.
Turning to `CS(=O)(=O)c1ccc2cc(C(=O)CBr)ccc2c1`, the Activity is given as 9.

Turning to `O=C(CBr)c1ccc2ccccc2c1`, the Activity is recorded as 6.5.

With `COc1ccc2cc(C(=O)CBr)ccc2c1`, the Activity was found to be 4.

Take `Cc1ccc2cc(C(=O)CBr)ccc2c1`: the Activity was found to be 9.

`O=C(CBr)c1ccc2cc(Cl)ccc2c1`: the Activity was determined as 4.5.

As to `CSc1ccc2cc(C(=O)CBr)ccc2c1`, the Activity was found to be 8.

Turning to `O=C(CBr)c1ccc2cc(O)ccc2c1`, the Activity is recorded as 4.

On to `O=C(CBr)c1ccc2cc(F)ccc2c1`, for which the Activity is 5.

As for `O=C(CBr)c1ccc2cc(Br)ccc2c1`, the Activity stood at 3.5.

For a further experiment, the system named is Achaea janata. Kind of experiment: Antifeedant activity against Achaea janata L. fourth-instar larvae fed on 100 ppm compound pre-treated castor leaves for 24 hrs assessed total leaf disks consumed in 24 hrs by leaf disk bioassay. Format: functional, organism-based.
As to `O=C(CBr)c1ccc2cc(Br)ccc2c1`, the outcome was Active.

The values above are taken from ChEMBL document CHEMBL3044550, “Insect antifeedant potent 6-substituted -bromo-2-naphthones” (2011).
